Experiment [1] deals with breast cancer cell line MCF-7. The experiment can be described thus: Activity against breast cancer cell line MCF-7. The class given is cell-based. To be noted: Homo sapiens, MCF7, read-out: IC50 against MCF-7.
Experiment [2] deals with endothelial human sapiens cell line EA.hy926. The experiment can be described thus: Activity against endothelial cell line EA.hy926. To be noted: EA.hy 926, read-out: IC50 against EA.hy926. The class given is cell-based.

Broadly, the IC50 is the midpoint of a concentration-inhibition curve. On to `CCc1cc(=O)n2c(=O)/c(=C/c3ccc(-c4ccc(C)cc4)cc3)sc2n1` [Compound 15, (Z)-7-ethyl-2-((4′-methyl-[1,1′-biphenyl]-4-yl)methylene)-5H-thiazolo[3,2-a]pyrimidine-3,5(2H)-dione], for which the IC50 in experiment [1] and in experiment [2] was above 250 µM in each case.
